# Source: patent publication US11896558B2, “Use of an RXR agonist and taxanes in treating Her2+ cancers” (Io Therapeutics, Inc., priority 2021, dated 2024)
# “Also recorded” adds a separate entry of the source.
# Experiments:
# [1] = test system: PPAR/RXR, FXR/RXR, or LXR/RXR; settings: cited from earlier work
# [2] = test system: Her2+ AU565 human breast cancer cell line; assay: Growth inhibition of AU565 cells, nuclei count; assay type: cell-based; settings: paclitaxel 2.5, 5 or 10 nM, IRX4204 10, 100 or 1000 nM, 6-10 days
# Description: After 6-10 days of treatment, cells were fixed with 4% paraformaldehyde. Nuclei were stained with DAPI, imaged using ImageXpress® Pico (Molecular Devices) and counted using CellReporterXpress® Analysis Software. Each data point represents the average of six replicates.
# To assess whether the increased inhibition from the combination of agents was additive or synergistic, the Combination Index (CI) was calculated using the computational program CompuSyn (ComboSyn, Inc.).
# [3] = test system: NSCLC (non-small cell lung cancer); settings: cited from earlier work
# RXR homodimers = assay: Activation of RXR homodimers; assay type: cell-based
# Nurr1/RXR heterodimer = assay: Activation of Nurr1/RXR heterodimer; settings: permissive heterodimer
# FXR/RXR = assay: Activation of FXR/RXR heterodimer; settings: permissive heterodimer
# RARα = RARα (Homo sapiens, UniProt P10276); settings: α isoform
# RARγ = RARγ (Homo sapiens, UniProt P13631); settings: γ isoform
# LXR/RXR = assay: Activation of LXR/RXR heterodimer; assay type: cell-based; settings: permissive heterodimer
# [4] = Daily dosing of IRX4204 free acid in adult human; assay type: in vivo
# RAR/RXR = assay: Activation of non-permissive RAR/RXR heterodimer; assay type: cell-based
# PPAR/RXR = assay: Activation of PPAR/RXR heterodimer; assay type: cell-based; settings: permissive heterodimer
# [5] = Systemic concentrations after oral dosing in humans
# RARβ = RARβ (Homo sapiens, UniProt P10826); settings: β isoform
# Chain of RARβ (P10826 whole entry, species assumed, canonical isoform): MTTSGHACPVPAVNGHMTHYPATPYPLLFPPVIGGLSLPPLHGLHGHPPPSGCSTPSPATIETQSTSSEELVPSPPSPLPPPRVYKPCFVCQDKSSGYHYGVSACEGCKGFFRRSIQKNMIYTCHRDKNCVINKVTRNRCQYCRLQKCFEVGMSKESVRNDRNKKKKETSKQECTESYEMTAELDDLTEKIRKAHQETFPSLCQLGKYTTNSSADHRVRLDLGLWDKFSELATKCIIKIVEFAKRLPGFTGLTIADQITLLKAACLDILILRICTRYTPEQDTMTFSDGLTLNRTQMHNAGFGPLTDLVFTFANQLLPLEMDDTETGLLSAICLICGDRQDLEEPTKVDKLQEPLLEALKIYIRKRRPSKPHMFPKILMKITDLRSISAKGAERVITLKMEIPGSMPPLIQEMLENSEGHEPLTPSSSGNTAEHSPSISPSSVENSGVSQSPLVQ
# Chain of RARα (P10276 whole entry, species assumed, canonical isoform): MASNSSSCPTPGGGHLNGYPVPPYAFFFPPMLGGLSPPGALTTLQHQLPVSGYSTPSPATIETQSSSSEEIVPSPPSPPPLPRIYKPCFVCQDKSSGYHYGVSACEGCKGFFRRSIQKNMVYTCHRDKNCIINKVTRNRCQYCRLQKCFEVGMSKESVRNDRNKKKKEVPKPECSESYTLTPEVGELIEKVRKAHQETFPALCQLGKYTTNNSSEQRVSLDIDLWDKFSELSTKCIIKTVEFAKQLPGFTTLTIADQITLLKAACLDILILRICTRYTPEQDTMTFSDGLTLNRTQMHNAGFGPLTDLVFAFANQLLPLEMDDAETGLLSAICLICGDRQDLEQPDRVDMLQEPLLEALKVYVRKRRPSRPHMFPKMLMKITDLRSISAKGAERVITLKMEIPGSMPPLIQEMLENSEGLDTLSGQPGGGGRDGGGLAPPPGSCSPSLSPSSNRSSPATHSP
# Chain of RARγ (P13631 whole entry, species assumed, canonical isoform): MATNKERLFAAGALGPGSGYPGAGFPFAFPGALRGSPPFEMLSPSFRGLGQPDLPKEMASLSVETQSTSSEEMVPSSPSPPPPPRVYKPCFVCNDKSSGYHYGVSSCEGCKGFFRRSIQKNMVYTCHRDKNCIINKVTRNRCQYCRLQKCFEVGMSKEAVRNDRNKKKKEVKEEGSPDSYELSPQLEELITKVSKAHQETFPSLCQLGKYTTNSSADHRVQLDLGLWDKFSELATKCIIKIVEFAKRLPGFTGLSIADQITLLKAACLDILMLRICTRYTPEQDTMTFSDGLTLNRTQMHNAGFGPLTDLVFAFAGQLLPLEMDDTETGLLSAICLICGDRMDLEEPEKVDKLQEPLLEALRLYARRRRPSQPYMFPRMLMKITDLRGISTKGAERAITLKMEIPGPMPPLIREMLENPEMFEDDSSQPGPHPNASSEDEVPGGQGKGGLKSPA
smiles,measurement,setting,value
Cc1cc2c(cc1C1(c3ccc(C(=O)O)cn3)CC1)C(C)(C)CCC2(C)C [LGD268],"activation of one or more of PPAR/RXR, FXR/RXR, or LXR/RXR",[1],"activates one or more of PPAR/RXR, FXR/RXR, or LXR/RXR"
"CC(=O)O[C@H]1C(=O)[C@@]2(C)[C@H]([C@H](OC(=O)c3ccccc3)[C@]3(O)C[C@H](OC(=O)[C@H](O)[C@@H](NC(=O)c4ccccc4)c4ccccc4)C(C)=C1C3(C)C)[C@]1(OC(C)=O)CO[C@@H]1C[C@@H]2O [paclitaxel, Paclitaxel, reference compound]",growth inhibition as sole agent,[2],sensitive
"C=C(c1ccc(C(=O)O)cc1)c1cc2c(cc1C)C(C)(C)CCC2(C)C [TARGRETIN, bexarotene]",survival in pivotal Phase III clinical study,[3]; NSCLC,did not show increased survival
same,results of Phase II studies,[3]; several Phase II studies in NSCLC,Encouraging results
"CC(/C=C/[C@@H]1C[C@]1(C)c1ccc2c(c1)C(C)(C)CCC2(C)C)=C\C(=O)O [IRX4204, 3,7-dimethyl-6(S),7(S)-methano,7-[1,1,4,4-tetramethyl-1,2,3,4-tetrahydron-aphth-7-yl]2(E), 4(E) heptadienoic acid]",activation of RXR homodimers,RXR homodimers,specifically activate
same,activation of Nurr1/RXR heterodimer,Nurr1/RXR heterodimer,specifically activates
same,activation of FXR/RXR heterodimer,FXR/RXR,does not activate
same,RAR EC10 (concentration effective to cause a 10% of maximal activation of the RAR),RARα,0.3 µM
same,RAR EC10 (concentration effective to cause a 10% of maximal activation of the RAR),RARγ,0.2 µM
same,activation of LXR/RXR heterodimer,LXR/RXR,does not activate
same,hypothyroidism,[4]; 10 mg/day free acid,does not result in hypothyroidism
same,hypothyroidism,[4]; 20 mg/day free acid,may induce a mild hypothyroidism
same,activation of RAR/RXR heterodimer,RAR/RXR,does not activate
same,growth inhibition as sole agent,[2],sensitive; also recorded: near maximal effect
same,activation of PPAR/RXR heterodimer,PPAR/RXR,does not activate
same,systemic concentrations,"[5]; oral dosage 0.01 to 0.02 mg/m^2/day, estimated",at least 0.1 nM
same,systemic concentrations,"[5]; oral dosage 20 mg/m^2/day, based on studies in humans",below 200 nM
same,RAR EC10 (concentration effective to cause a 10% of maximal activation of the RAR),RARβ,0.2 µM
